How the values were obtained:
Full-length human MNK2 = Full-length human MNK2 (Homo sapiens, UniProt Q9HBH9, T379D); test: MNK2 biochemical IC50 assay (Caliper mobility shift)
[1] = test system: phosphorylation of eIF4E at ser209 in MV4.11 cell line; test: cells; assay type: cell-based; conditions: Homo sapiens; MV4.11 cells, 1.5 hr compound incubation, average of at least 2 independent experiments; read-out: plc50 elF4E (converted)
Method: MNK activity in cells was measured by monitoring the phosphorylation of eIF4E at ser209, the known endogenous substrate of MNK1/2, in cell lysates. […] The assay detection is based on the formation of sandwich antibody complexes coupled to donor and acceptor beads. Excitation at 680 nm causes the transfer of a singlet oxygen species between donor and acceptor beads when they are in close proximity by binding to the analyte […], which results in the emission of light at 520-620 nm.
Cells were then lysed and the Aphascreen Surefire protocol followed according to manufacturer's recommendations. 8 ul Acceptor beads (1:50 dilution in kit activation buffer) was added to lysate, shaken 150 rpm for 2 min and incubated for 1.5 hr at room temperature. 3 ul Donor beads (1:20 dilution in kit dilution buffer) were then added, shaken 150 rpm for 2 min and incubated for a further 1.5 hr at room temperature after which the plates were read on Pherastar FS using Alphascreen optic module.
Data were normalised relative to untreated DMSO only controls and curves repeated in duplicate within experiments. Data reported are averages of at least 2 independent experiments.

Full-length human MNK1 = Full-length human MNK1 (Homo sapiens, UniProt Q9BUB5, T385D); test: MNK1 biochemical IC50 assay (Caliper mobility shift)
Chain of Full-length human MNK1 (Q9BUB5 1-424 isoform Q9BUB5-2 T344D): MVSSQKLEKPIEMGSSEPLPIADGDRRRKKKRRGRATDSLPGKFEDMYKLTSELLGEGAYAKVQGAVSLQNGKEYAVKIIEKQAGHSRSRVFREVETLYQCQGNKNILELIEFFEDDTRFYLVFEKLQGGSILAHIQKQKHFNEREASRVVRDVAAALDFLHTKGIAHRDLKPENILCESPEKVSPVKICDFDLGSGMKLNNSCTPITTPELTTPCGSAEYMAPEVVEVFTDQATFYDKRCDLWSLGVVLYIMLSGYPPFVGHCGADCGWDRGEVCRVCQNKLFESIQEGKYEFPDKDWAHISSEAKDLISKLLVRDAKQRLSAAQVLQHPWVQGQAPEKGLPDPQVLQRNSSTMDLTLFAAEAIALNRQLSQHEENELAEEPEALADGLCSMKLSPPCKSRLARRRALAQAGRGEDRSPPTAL

Chain of Full-length human MNK2 (Q9HBH9 whole entry T379D): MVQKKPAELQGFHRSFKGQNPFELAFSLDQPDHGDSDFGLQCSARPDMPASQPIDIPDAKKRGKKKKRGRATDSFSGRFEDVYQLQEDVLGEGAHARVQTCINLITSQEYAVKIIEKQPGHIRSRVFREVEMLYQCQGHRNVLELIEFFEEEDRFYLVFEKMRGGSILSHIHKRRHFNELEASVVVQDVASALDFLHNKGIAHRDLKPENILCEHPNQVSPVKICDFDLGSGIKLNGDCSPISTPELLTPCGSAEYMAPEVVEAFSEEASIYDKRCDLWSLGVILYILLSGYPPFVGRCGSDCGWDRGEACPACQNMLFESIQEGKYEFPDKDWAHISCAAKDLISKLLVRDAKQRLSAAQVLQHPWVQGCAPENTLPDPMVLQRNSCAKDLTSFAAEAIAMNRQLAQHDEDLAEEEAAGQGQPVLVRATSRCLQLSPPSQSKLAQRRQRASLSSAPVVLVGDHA

| SMILES | IC50 (Full-length human MNK2) | IC50 (Full-length human MNK1) | IC50 [1] |
| --- | --- | --- | --- |
| CC(C)Oc1ccccc1Nc1ncnc2ccn(C)c12 [Example 28, N-(2-isopropoxyphenyl)-5-methyl-pyrrolo[3,2-d]pyrimidin-4-amine] | 158 nM | 398 nM | 39.8 nM |
| Cn1ccc2ncnc(Nc3ccc(F)cc3OC3CCC3)c21 [Example 17, N-[2-(cyclobutoxy)-4-fluoro-phenyl]-5-methyl-pyrrolo[3,2-d]pyrimidin-4-amine] | 79.4 nM | 200 nM | 31.6 nM |
| Cn1ccc2ncnc(Nc3ccc(F)cc3OC(CF)CF)c21 [Example 11, N-[4-fluoro-2-[2-fluoro-1-(fluoromethyl)ethoxy]phenyl]-5-methyl-pyrrolo[3,2-d]pyrimidin-4-amine] | 50.1 nM | 158 nM | – |
| CO[C@@H]1CCCC[C@H]1Oc1cc(F)ccc1Nc1ncnc2ccn(C)c12 [Example 38, N-[4-fluoro-2-[(1R,2R)-2-methoxycyclohexoxy]phenyl]-5-methyl-pyrrolo[3,2-d]pyrimidin-4-amine] | 316 nM | 2000 nM | 39.8 nM |
| Cn1ccc2ncnc(Nc3ccc(F)cc3O[C@@H]3CCCOC3)c21 [Example 18, N-[4-fluoro-2-[(3R)-tetrahydropyran-3-yl]oxy-phenyl]-5-methyl-pyrrolo[3,2-d]pyrimidin-4-amine] | 31.6 nM | 63.1 nM | – |
| Cn1ccc2ncnc(Nc3ccc(F)cc3O[C@H]3CC[C@H](O)CC3)c21 [Example 12, 4-[5-fluoro-2-[(5-methylpyrrolo[3,2-d]pyrimidin-4-yl)amino]phenoxy]cyclohexanol] | 79.4 nM | 200 nM | 15.8 nM |
| Cn1ccc2ncnc(Nc3ccc(F)cc3O[C@H]3CCCOC3)c21 [Example 19, N-[4-fluoro-2-[(3S)-tetrahydropyran-3-yl]oxy-phenyl]-5-methyl-pyrrolo[3,2-d]pyrimidin-4-amine] | 126 nM | 501 nM | – |
| CO[C@H]1CCCC[C@@H]1Oc1cc(F)ccc1Nc1ncnc2ccn(C)c12 [Example 37, N-[4-fluoro-2-[(1S,2S)-2-methoxycyclohexoxy]phenyl]-5-methyl-pyrrolo[3,2-d]pyrimidin-4-amine] | 794 nM | 15800 nM | 251 nM |
| Cn1ccc2ncnc(Nc3ccc(F)cc3OC3CCCC3)c21 [Example 25, N-[2-(cyclopentyloxy)-4-fluorophenyl]-5-methyl-5H-pyrrolo[3,2-d]pyrimidin-4-amine] | 31.6 nM | 126 nM | – |
| CC(C)Oc1c(F)cccc1Nc1ncnc2ccn(C)c12 [Example 33, N-(3-fluoro-2-isopropoxy-phenyl)-5-methyl-pyrrolo[3,2-d]pyrimidin-4-amine] | 50.1 nM | 100 nM | 25.1 nM |
| CC(C)Oc1cc(F)ccc1Nc1ncnc2cc(C(=O)NCCN3CCNCC3)n(C)c12 [Example 42, 4-{[4-Fluoro-2-(propan-2-yloxy)phenyl]amino}-5-methyl-N-[2-(piperazin-1-yl)ethyl]-5H-pyrrolo[3,2-d]pyrimidine-6-carboxamide] | 50.1 nM | 50.1 nM | 100 nM |
| CC(C)Oc1cc(C#N)ccc1Nc1ncnc2ccn(C)c12 [Example 7, 3-Isopropoxy-4-[(5-methylpyrrolo[3,2-d]pyrimidin-4-yl)amino]benzonitrile] | 25.1 nM | 50.1 nM | 31.6 nM |
| Fc1ccc2c(c1)CCN2c1ncnc2cc[nH]c12 [Example 46, 4-(5-Fluoroindolin-1-yl)-5H-pyrrolo[3,2-d]pyrimidine] | 31.6 nM | 39.8 nM | – |
| CC(C)Oc1cc(F)ccc1Nc1ncnc2cc(C(=O)NCC3CCNCC3)n(C)c12 [Example 41, 4-{[4-Fluoro-2-(propan-2-yloxy)phonyl]amino}-5-methyl-N-(piperidin-4-ylmethyl)-5H-pyrrolo[3,2-d]pyrimidine-6-carboxamide] | 39.8 nM | 39.8 nM | – |

Now from value to molecule, other results behind:

| IC50 (Full-length human MNK2) | IC50 (Full-length human MNK1) | SMILES | IC50 [1] |
| --- | --- | --- | --- |
| 126 nM | 200 nM | CCn1ccc2ncnc(Nc3ccc(F)cc3OC(C)C)c21 [Example 1, 5-Ethyl-N-(4-fluoro-2-isopropoxy-phenyl)pyrrolo[3,2-d]pyrimidin-4-amine] | 50.1 nM |
| 158 nM | 316 nM | Cn1ccc2ncnc(Nc3ccc(F)cc3OCC(F)F)c21 [Example 31, N-[2-(2,2-difluoroethoxy)-4-fluoro-phenyl]-5-methyl-pyrrolo[3,2-d]pyrimidin-4-amine] | 50.1 nM |
| 63.1 nM | 79.4 nM | CC(C)Oc1cc(F)ccc1Nc1ncnc2cc(C(=O)NCCCN(C)C)[nH]c12 [Example 44, N-[3-(dimethylamino)propyl]-4-(4-fluoro-2-isopropoxy-anilino)-5H-pyrrolo[3,2-d]pyrimidine-6-carboxamide] | 63.1 nM |
| 39.8 nM | 126 nM | C[C@H](CF)Oc1cc(F)ccc1Nc1ncnc2ccn(C)c12 [Example 23, N-[4-fluoro-2-[(1R)-2-fluoro-1-methyl-ethoxy]phenyl]-5-methyl-pyrrolo[3,2-d]pyrimidin-4-amine] | 15.8 nM |
| 79.4 nM | 126 nM | CC(C)Oc1cc(F)ccc1Nc1ncnc2cc[nH]c12 [Example 45, N-(4-fluoro-2-isopropoxy-phenyl)-5H-pyrrolo[3,2-d]pyrimidin-4-amine] | 501 nM |
| 100 nM | 251 nM | CC(C)Oc1ncccc1Nc1ncnc2ccn(C)c12 [Example 29, N-(2-isopropoxy-3-pyridyl)-5-methyl-pyrrolo[3,2-d]pyrimidin-4-amine] | 50.1 nM |
| 200 nM | 501 nM | Cn1ccc2ncnc(Nc3ccc(F)cc3OC3CC3)c21 [Example 24, N-[2-(cyclopropoxy)-4-fluoro-phenyl]-5-methyl-pyrrolo[3,2-d]pyrimidin-4-amine] | 79.4 nM |
| 50.1 nM | 100 nM | C[C@@H](CF)Oc1cc(F)ccc1Nc1ncnc2ccn(C)c12 [Example 22, N-[4-fluoro-2-[(1S)-2-fluoro-1-methyl-ethoxy]phenyl]-5-methyl-pyrrolo[3,2-d]pyrimidin-4-amine] | 15.8 nM |
| 50.1 nM | 126 nM | CC(C)Oc1cc(F)ccc1Nc1ncnc2ccn(C)c12 [Example 27, N-(4-fluoro-2-isopropoxy-phenyl)-5-methyl-pyrrolo[3,2-d]pyrimidin-4-amine] | 20 nM |
| 631 nM | 3160 nM | CO[C@H]1CCC[C@@H](Oc2cc(F)ccc2Nc2ncnc3ccn(C)c23)C1 [Example 20, N-[4-fluoro-2-[(1R,3S)-3-methoxycyclohexoxy]phenyl]-5-methyl-pyrrolo[3,2-d]pyrimidin-4-amine] | 200 nM |
| 158 nM | 316 nM | Cn1ccc2ncnc(Nc3ccc(F)cc3OC3CCOCC3)c21 [Example 13, N-(4-fluoro-2-tetrahydropyran-4-yloxy-phenyl)-5-methyl-pyrrolo[3,2-d]pyrimidin-4-amine] | 63.1 nM |
| 251 nM | 398 nM | CCOc1ncccc1Nc1ncnc2ccn(C)c12 [Example 34, N-(2-ethoxy-3-pyridyl)-5-methyl-pyrrolo[3,2-d]pyrimidin-4-amine] | 126 nM |

— patent publication US10604524B2, “Pyrropyrimidine compounds as MNKs inhibitors” (LIFEARC, priority 2015, dated 2020)
